According to ChEMBL document CHEMBL1146225, “[1,2,3]Triazolo[4,5-h]quinolones. A new class of potent antitubercular agents against multidrug resistant Mycobacterium tuberculosis strains” (Bioorg Med Chem Lett, 2007):
Converted amounts (≈) assume the structure as drawn.

Tests used:
[1] = tested on: Mycobacterium tuberculosis; experiment: Antitubercular activity against Mycobacterium tuberculosis SS3; format: functional
[2] = tested on: Mycobacterium tuberculosis; experiment: Antitubercular activity against Mycobacterium tuberculosis H37Rv; format: functional
[3] = tested on: Mycobacterium tuberculosis; experiment: Antitubercular activity against Mycobacterium tuberculosis SS10; format: functional
[4] = tested on: Mycobacterium tuberculosis; experiment: Antitubercular activity against Mycobacterium tuberculosis SS4; format: functional
[5] = tested on: Mycobacterium tuberculosis; experiment: Antitubercular activity against Mycobacterium tuberculosis SS11; format: functional
[6] = tested on: Mycobacterium tuberculosis; experiment: Antitubercular activity against Mycobacterium tuberculosis SS2; format: functional
[7] = tested on: Mycobacterium tuberculosis; experiment: Antitubercular activity against Mycobacterium tuberculosis SS6; format: functional
[8] = tested on: Mycobacterium tuberculosis; experiment: Antitubercular activity against Mycobacterium tuberculosis SS1; format: functional
[9] = tested on: Mycobacterium tuberculosis; experiment: Antitubercular activity against Mycobacterium tuberculosis SS7; format: functional
[10] = tested on: Mycobacterium tuberculosis; experiment: Antitubercular activity against Mycobacterium tuberculosis SS9; format: functional
[11] = tested on: Mycobacterium tuberculosis; experiment: Antitubercular activity against Mycobacterium tuberculosis SS8; format: functional
[12] = tested on: Mycobacterium tuberculosis; experiment: Antitubercular activity against Mycobacterium tuberculosis SS5; format: functional
[13] = Cytotoxicity against human Hep2 cells; format: cell-based, HEp-2
[14] = tested on: Mycobacterium tuberculosis; experiment: Effect on mycobacterial growth of Mycobacterium tuberculosis H37Rv infected in human J774A1 cells at 0.25 ug/mL after 7 days; format: functional, J774.A1
[15] = Cytotoxicity against human J774A1; format: cell-based, J774.A1; conditions: J774A1 cells
[16] = tested on: Mycobacterium tuberculosis; experiment: Effect on mycobacterial growth of Mycobacterium tuberculosis H37Rv infected in human J774A1 cells at 0.5 ug/mL after 7 days; format: functional, J774.A1

| Compound | MIC90 [1] | MIC90 [2] | MIC90 [3] | MIC90 [4] | MIC90 [5] | MIC90 [6] | MIC90 [7] | MIC90 [8] | MIC90 [9] | MIC90 [10] | MIC90 [11] | MIC90 [12] | CC50 [13] | CFU [14] | CC50 [15] | CFU [16] |
| --- | --- | --- | --- | --- | --- | --- | --- | --- | --- | --- | --- | --- | --- | --- | --- | --- |
| Cn1cc(C(=O)O)c(=O)c2ccc3c(nnn3C)c21 | 0.5 µg/mL (≈ 1.94 µM) | 0.5 µg/mL (≈ 1.94 µM) | 0.5 µg/mL (≈ 1.94 µM) | 2 µg/mL (≈ 7.74 µM) | 0.5 µg/mL (≈ 1.94 µM) | 0.5 µg/mL (≈ 1.94 µM) | 0.5 µg/mL (≈ 1.94 µM) | 0.5 µg/mL (≈ 1.94 µM) | 0.5 µg/mL (≈ 1.94 µM) | 0.5 µg/mL (≈ 1.94 µM) | 0.5 µg/mL (≈ 1.94 µM) | 0.5 µg/mL (≈ 1.94 µM) | – | – | – | – |
| C=CCn1cc(C(=O)O)c(=O)c2ccc3c(nnn3C)c21 | > 32 µg/mL | > 32 µg/mL | > 32 µg/mL | > 32 µg/mL | > 32 µg/mL | > 32 µg/mL | > 32 µg/mL | > 32 µg/mL | > 32 µg/mL | > 32 µg/mL | > 32 µg/mL | > 32 µg/mL | – | – | – | – |
| CCCCn1cc(C(=O)OCC)c(=O)c2ccc3c(nnn3C)c21 | 0.5 µg/mL (≈ 1.52 µM) | 0.5 µg/mL (≈ 1.52 µM) | 0.5 µg/mL (≈ 1.52 µM) | 0.5 µg/mL (≈ 1.52 µM) | 0.5 µg/mL (≈ 1.52 µM) | 0.5 µg/mL (≈ 1.52 µM) | 0.5 µg/mL (≈ 1.52 µM) | 0.5 µg/mL (≈ 1.52 µM) | 0.5 µg/mL (≈ 1.52 µM) | 0.5 µg/mL (≈ 1.52 µM) | 0.5 µg/mL (≈ 1.52 µM) | 0.5 µg/mL (≈ 1.52 µM) | > 50 µg/mL | 8000 µL⁻¹ | > 50 µg/mL | 5000 µL⁻¹ |
| CCn1cc(C(=O)O)c(=O)c2ccc3c(nnn3CC)c21 | – | 1.6 µg/mL (≈ 5.59 µM) | – | – | – | – | – | – | – | – | – | – | – | – | – | – |
| CO[C@H]1/C=C/O[C@@]2(C)Oc3c(C)c(O)c4c(O)c(c(/C=N/N5CCN(C)CC5)c(O)c4c3C2=O)NC(=O)/C(C)=C\C=C\[C@H](C)[C@H](O)[C@@H](C)[C@@H](O)[C@@H](C)[C@H](OC(C)=O)[C@@H]1C [RIFAMPIN] | 0.5 µg/mL (≈ 0.608 µM) | 0.7 µg/mL (≈ 0.851 µM) | 0.8 µg/mL (≈ 0.972 µM) | 0.7 µg/mL (≈ 0.851 µM) | 0.5 µg/mL (≈ 0.608 µM) | > 4 µg/mL | > 4 µg/mL | > 4 µg/mL | 0.8 µg/mL (≈ 0.972 µM) | 0.5 µg/mL (≈ 0.608 µM) | 0.5 µg/mL (≈ 0.608 µM) | 0.5 µg/mL (≈ 0.608 µM) | – | – | – | – |
| CCOC(=O)c1cn(Cc2ccccc2)c2c(ccc3c2nnn3C)c1=O | > 32 µg/mL | > 32 µg/mL | > 32 µg/mL | > 32 µg/mL | > 32 µg/mL | > 32 µg/mL | > 32 µg/mL | > 32 µg/mL | > 32 µg/mL | > 32 µg/mL | > 32 µg/mL | > 32 µg/mL | – | – | – | – |
| CCCn1cc(C(=O)OCC)c(=O)c2ccc3c(nnn3C)c21 | > 32 µg/mL | > 32 µg/mL | > 32 µg/mL | > 32 µg/mL | > 32 µg/mL | > 32 µg/mL | > 32 µg/mL | > 32 µg/mL | > 32 µg/mL | > 32 µg/mL | > 32 µg/mL | > 32 µg/mL | – | – | – | – |
| CCCn1cc(C(=O)O)c(=O)c2ccc3c(nnn3C)c21 | 1.6 µg/mL (≈ 5.59 µM) | 1.6 µg/mL (≈ 5.59 µM) | 1.6 µg/mL (≈ 5.59 µM) | 3.2 µg/mL (≈ 11.2 µM) | 1.6 µg/mL (≈ 5.59 µM) | 1.6 µg/mL (≈ 5.59 µM) | 1.6 µg/mL (≈ 5.59 µM) | 1.6 µg/mL (≈ 5.59 µM) | 3.2 µg/mL (≈ 11.2 µM) | 1.6 µg/mL (≈ 5.59 µM) | 1.6 µg/mL (≈ 5.59 µM) | 3.2 µg/mL (≈ 11.2 µM) | – | – | – | – |
| Cn1nnc2c3c(ccc21)c(=O)c(C(=O)O)cn3Cc1ccc(Br)cc1 | > 32 µg/mL | > 32 µg/mL | > 32 µg/mL | > 32 µg/mL | > 32 µg/mL | > 32 µg/mL | > 32 µg/mL | > 32 µg/mL | > 32 µg/mL | > 32 µg/mL | > 32 µg/mL | > 32 µg/mL | – | – | – | – |
| Cn1nnc2c3[nH]cc(C(=O)O)c(=O)c3ccc21 | – | 4.8 µg/mL (≈ 19.7 µM) | – | – | – | – | – | – | – | – | – | – | – | – | – | – |
